Experimental data taken from paper PMC5155152, “A diverse intrinsic antibiotic resistome from a cave bacterium” (Nature Communications, 2016).
In brackets after ≈: the same amount, converted by molar mass.

Test system: T1, Paenibacillus sp. LC231
T1 construct: LC231
Experiment: microbe, parasite or virus in culture
Set-up: antibacterial susceptibility, minimal inhibitory concentration (quantitative antibiogram)
Excerpt: We generated a quantitative antibiogram for Paenibacillus sp. LC231 for 40 different antibiotics that target diverse cellular processes and compared it with the susceptibility of a surface strain of Paenibacillus lautus ATCC 43898, the pathogen Staphylococcus aureus RN4220 and the environmental bacterium Kocuria rhizophila (formerly identified as Micrococcus luteus) (Supplementary Tables 1 and 2). […] Further experiments in this study investigate the molecular basis of resistance and not the contribution of each genetic determinant to the resistance phenotype of Paenibacillus sp. LC231. […] We focused our investigation on Paenibacillus sp. LC231 and determined that in addition to resistance to 14 classes of antibiotic, it inactivates 7 distinct classes.

In the case of `CN[C@H](CC(C)C)C(=O)N[C@H]1C(=O)N[C@@H](CC(N)=O)C(=O)N[C@H]2C(=O)N[C@H]3C(=O)N[C@H](C(=O)N[C@H](C(=O)O)c4cc(O)cc(O)c4-c4cc3ccc4O)[C@H](O)c3ccc(c(Cl)c3)Oc3cc2cc(c3O[C@@H]2O[C@H](CO)[C@@H](O)[C@H](O)[C@H]2O[C@H]2C[C@](C)(N)[C@H](O)[C@H](C)O2)Oc2ccc(cc2Cl)[C@H]1O` [Vancomycin], the MIC is reported as 1 µg/mL (≈ 0.69 µM).

Work on `CC[C@H]1OC(=O)[C@H](C)C(=O)[C@H](C)[C@@H](O[C@@H]2O[C@H](C)C[C@H](N(C)C)[C@H]2O)[C@](C)(OC)C[C@@H](C)C(=O)[C@H](C)[C@H]2N(CCCCn3cnc(-c4cccnc4)c3)C(=O)O[C@]12C` [Telithromycin] yielded an MIC of 2 µg/mL (≈ 2.46 µM).

With `CCC[C@@H]1C[C@@H](C(=O)N[C@@H]([C@H]2O[C@H](SC)[C@H](O)[C@@H](O)[C@H]2O)[C@H](C)Cl)N(C)C1` [Clindamycin] the MIC was 16 µg/mL (≈ 37.6 µM).

For `CN[C@@H]1[C@H](O[C@H]2[C@H](O[C@H]3[C@H](O)[C@@H](O)[C@H](N=C(N)N)[C@@H](O)[C@@H]3N=C(N)N)O[C@@H](C)[C@]2(O)C=O)O[C@@H](CO)[C@H](O)[C@H]1O` [Streptomycin], the MIC was at least 128 µg/mL.

In the case of `CC[C@H]1OC(=O)[C@H](C)[C@@H](O[C@H]2C[C@@](C)(OC)[C@@H](O)[C@H](C)O2)[C@H](C)[C@@H](O[C@@H]2O[C@H](C)C[C@H](N(C)C)[C@H]2O)[C@](C)(O)C[C@@H](C)CN(C)[C@H](C)[C@@H](O)[C@]1(C)O` [Azithromycin], the MIC is reported as 16 µg/mL (≈ 21.4 µM).

`C[C@@H]1O[C@@H]1P(=O)(O)O` [Fosfomycin] showed an MIC of at least 128 µg/mL.

`CC[C@H]1OC(=O)C[C@@H](O)[C@H](C)[C@@H](O[C@@H]2O[C@H](C)[C@@H](O[C@H]3C[C@@](C)(O)[C@@H](O)[C@H](C)O3)[C@H](N(C)C)[C@H]2O)[C@@H](CC=O)C[C@@H](C)C(=O)/C=C/C(C)=C/[C@@H]1CO[C@@H]1O[C@H](C)[C@@H](O)[C@@H](OC)[C@H]1OC` [tylosin] showed an MIC of 16 µg/mL (≈ 17.5 µM).

For `CO[C@@H]1[C@@H](OC(N)=O)[C@@H](O)[C@H](Oc2ccc3c(O)c(NC(=O)c4ccc(O)c(CC=C(C)C)c4)c(=O)oc3c2C)OC1(C)C` [Novobiocin], the MIC was 0.25 µg/mL (≈ 0.408 µM).

With `CCn1cc(C(=O)O)c(=O)c2ccc(C)nc21` [Nalidixic acid] the MIC was 4 µg/mL (≈ 17.2 µM).

`C/C(=C\C(=O)OCCCCCCCCC(=O)O)C[C@@H]1OC[C@H](C[C@@H]2O[C@H]2[C@@H](C)[C@H](C)O)[C@@H](O)[C@H]1O` [Mupirocin] gave an MIC of at least 100 µg/mL.

`NC[C@H]1O[C@H](O[C@H]2[C@H](O)[C@@H](O[C@H]3O[C@H](CO)[C@@H](O)[C@H](N)[C@H]3O)[C@H](N)C[C@@H]2N)[C@H](O)[C@@H](O)[C@@H]1O` [Kanamycin] was tested, and the MIC was at least 128 µg/mL.

Compound `CC[C@H]1OC(=O)[C@H](C)[C@@H](O[C@H]2C[C@@](C)(OC)[C@@H](O)[C@H](C)O2)[C@H](C)[C@@H](O[C@@H]2O[C@H](C)C[C@H](N(C)C)[C@H]2O)[C@](C)(OC)C[C@@H](C)C(=O)[C@H](C)[C@@H](O)[C@]1(C)O` [Clarithromycin] has an MIC of 0.25 µg/mL (≈ 0.334 µM).

In the case of `CC1(C)S[C@@H]2[C@H](NC(=O)[C@H](N)c3ccccc3)C(=O)N2[C@H]1C(=O)O` [Ampicillin], the MIC is reported as 8 µg/mL (≈ 22.9 µM).

`C[C@@H](O)[C@H]1C(=O)N2C(C(=O)O)=C(S[C@@H]3CN[C@H](C(=O)N(C)C)C3)[C@H](C)[C@H]12` [Meropenem] was tested, and the MIC was 2 µg/mL (≈ 5.22 µM).

In the case of `O=C(O)c1cn(C2CC2)c2cc(N3CCNCC3)c(F)cc2c1=O` [Ciprofloxacin], the MIC is reported as 0.25 µg/mL (≈ 0.754 µM).

`CO/N=C(\C(=O)N[C@@H]1C(=O)N2C(C(=O)O)=C(COC(C)=O)CS[C@H]12)c1csc(N)n1` [Cefotaxime] was tested, and the MIC was 2 µg/mL (≈ 4.39 µM).

For `CC[C@H]1OC(=O)[C@H](C)[C@@H](O[C@H]2C[C@@](C)(OC)[C@@H](O)[C@H](C)O2)[C@H](C)[C@@H](O[C@@H]2O[C@H](C)C[C@H](N(C)C)[C@H]2O)[C@](C)(O)C[C@@H](C)C(=O)[C@H](C)[C@@H](O)[C@]1(C)O` [Erythromycin], the MIC was 2 µg/mL (≈ 2.73 µM).

For `CC1=C(C(=O)O)N2C(=O)[C@@H](NC(=O)[C@H](N)c3ccccc3)[C@H]2SC1` [Cephalexin], the MIC was at least 128 µg/mL.

`O=C(N[C@H](CO)[C@H](O)c1ccc([N+](=O)[O-])cc1)C(Cl)Cl` [chloramphenicol] showed an MIC of 32 µg/mL (≈ 99 µM).
